Where a name gives a salt, the structure may show the parent alone. Some results are limits rather than exact numbers.

In this experiment the target is human recombinant 5-HT2C receptor (Homo sapiens (Human), UniProt P28335). Conditions: read-out: Binding affinity to serotonin receptor 5-HT2C: IC50.
Sequence of human recombinant 5-HT2C receptor (P28335 whole entry, looked up): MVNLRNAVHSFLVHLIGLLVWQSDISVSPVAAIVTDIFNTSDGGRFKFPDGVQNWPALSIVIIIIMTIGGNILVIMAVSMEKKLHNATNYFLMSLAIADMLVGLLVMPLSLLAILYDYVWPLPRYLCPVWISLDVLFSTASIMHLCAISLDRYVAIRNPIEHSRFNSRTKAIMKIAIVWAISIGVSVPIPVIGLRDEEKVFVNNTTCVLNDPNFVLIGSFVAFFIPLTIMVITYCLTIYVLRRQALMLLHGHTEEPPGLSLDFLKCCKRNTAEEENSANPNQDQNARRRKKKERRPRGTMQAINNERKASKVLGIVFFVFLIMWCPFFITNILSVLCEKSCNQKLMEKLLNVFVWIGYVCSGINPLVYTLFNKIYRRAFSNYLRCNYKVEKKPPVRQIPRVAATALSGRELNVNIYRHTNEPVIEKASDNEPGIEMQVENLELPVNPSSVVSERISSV
Method: Receptor binding affinities of the compounds for serotonin receptors were measured by the method described in the literature [Park W K et al., Pharmacol Biochem Behay.
The binding affinity (IC50) of a compound for the receptor was calculated by computerized nonlinear regression analysis (GraphPad Prism Program, San Diego, USA) using 7-8 varied concentrations of the compound run in duplicate tubes.
Nonspecific binding was determined using 100 uM mianserin. The incubations were performed for 60 min at 27° C., and these were terminated by rapid filtration through filtermate A glass fiber filter presoaked in 0.5% PEI.
By IC50 is commonly meant the concentration that gives 50% inhibition. In the case of `COc1ccccc1-n1c(C)nc(C(=O)NCC(O)CN2CCN(c3cccc(C)c3C)CC2)c1C` (stereo not shown) [Example 100, N-(3-(4-(2,3-dimethylphenyl)piperazin-1-yl)-2-hydroxypropyl)-1-(2-methoxyphenyl)-2,5-dimethyl-1H-imidazole-4-carboxamide dihydrochloride], the IC50 is 207 nM. Consider `Cc1cccc(N2CCN(CCNC(=O)c3nc(C)n(-c4ccc(F)cc4)c3C)CC2)c1C` [Example 114, N-(2-(4-(2,3-dimethylphenyl)piperazin-1-yl)ethyl)-1-(4-fluorophenyl)-2,5-dimethyl-1H-imidazole-4-carboxamide dihydrochloride], for which the 50% inhibitory concentration (IC50) was 46 nM.

As for `Cc1cccc(N2CCN(CC(O)CNC(=O)c3nc(C)n(CC(C)C)c3C)CC2)c1C` (stereo not shown) [Example 94, N-(3-(4-(2,3-dimethylphenyl)piperazin-1-yl)-2-hydroxypropyl)-1-isobutyl-2,5-dimethyl-1H-imidazole-4-carboxamide dihydrochloride], the IC50 was determined as 595 nM. Next, `CCCc1nc(C(=O)NCCCN2CCN(c3cccc(Cl)c3Cl)CC2)c(C)n1-c1ccccc1` [Example 7, N-(3-(4-(2,3-dichlorophenyl)piperazin-1-yl)propyl)-5-methyl-1-phenyl-2-propyl-1H-imidazole-4-carboxamide dihydrochloride]: 189 nM; `Cc1cccc(N2CCN(CC(O)CNC(=O)c3nc(-c4ccccc4)n(-c4ccccc4)c3C)CC2)c1C` (stereo not shown) [Example 155, N-(3-(4-(2,3-dimethylphenyl)piperazin-1-yl)-2-hydroxypropyl)-5-methyl-1,2-diphenyl-1H-imidazole-4-carboxamide dihydrochloride]: 525 nM; `CCCc1nc(C(=O)NCC(O)CN2CCN(c3cccc(C)c3C)CC2)cn1-c1ccccc1` (stereo not shown) [Example 121, N-(3-(4-(2,3-dimethylphenyl)piperazin-1-yl)-2-hydroxypropyl)-1-phenyl-2-propyl-1H-imidazole-4-carboxamide dihydrochloride]: 635 nM. Next, `CCCn1c(C)nc(C(=O)NCC(O)CN2CCN(c3cccc(C)c3C)CC2)c1C` (stereo not shown) [Example 96, N-(3-(4-(2,3-dimethylphenyl)piperazin-1-yl)-2-hydroxypropyl)-2,5-dimethyl-1-propyl-1H-imidazole-4-carboxamide dihydrochloride]: above 10000 nM.

As for `CCc1nc(C(=O)NCCN2CCN(c3cccc(Cl)c3Cl)CC2)c(C)n1-c1ccccc1` [Example 13, N-(2-(4-(2,3-dichlorophenyl)piperazin-1-yl)ethyl)-2-ethyl-5-methyl-1-phenyl-1H-imidazole-4-carboxamide], the half-maximal inhibitory concentration (IC50) came to 62 nM. The result for `CCCc1nc(C(=O)NCC(O)CN2CCN(c3cccc(C)c3C)CC2)cn1-c1ccc(Cl)cc1` (stereo not shown) [Example 111, 1-(4-chlorophenyl)-N-(3-(4-(2,3-dimethylphenyl)piperazin-1-yl)-2-hydroxypropyl)-2-propyl-1H-imidazole-4-carboxamide dihydrochloride] reads 661 nM. Next, `Cc1ccc(-n2c(C)nc(C(=O)NCC(O)CN3CCN(c4cccc(C)c4C)CC3)c2C)cc1` (stereo not shown) [Example 148, N-(3-(4-(2,3-dimethylphenyl)piperazin-1-yl)-2-hydroxypropyl)-2,5-dimethyl-1-p-tolyl-1H-imidazole-4-carboxamide dihydrochloride]: 705 nM; `COc1cc(OC)cc(-n2c(C)nc(C(=O)NCCN3CCN(c4cccc(C)c4C)CC3)c2C)c1` [Example 112, 1-(3,5-dimethoxyphenyl)-N-(2-(4-(2,3-dimethylphenyl)piperazin-1-yl)ethyl)-2,5-dimethyl-1H-imidazole-4-carboxamide dihydrochloride]: 63 nM; `CCCc1nc(C(=O)NCCCN2CCN(c3cccc(C)c3C)CC2)cn1-c1ccccc1` [Example 117, N-(3-(4-(2,3-dimethylphenyl)piperazin-1-yl)propyl)-1-phenyl-2-propyl-1H-imidazole-4-carboxamide dihydrochloride]: 103 nM. Next, `Cc1ccc(-n2c(C)nc(C(=O)NCCCN3CCN(c4cccc(C)c4C)CC3)c2C)cc1` [Example 147, N-(3-(4-(2,3-dimethylphenyl)piperazin-1-yl)propyl)-2,5-dimethyl-1-p-tolyl-1H-imidazole-4-carboxamide dihydrochloride]: 78.1 nM. With `Cc1cccc(N2CCN(CCCNC(=O)c3nc(C)n(CC(C)C)c3C)CC2)c1C` [Example 92, N-(3-(4-(2,3-dimethylphenyl)piperazin-1-yl)propyl)-1-isobutyl-2,5-dimethyl-1H-imidazole-4-carboxamide dihydrochloride], the 50% inhibitory concentration (IC50) was 10100 nM.

For the molecule `Cc1nc(C(=O)NCCCN2CCN(c3cccc(Cl)c3Cl)CC2)c(C)n1-c1ccccc1` [Example 6, N-(3-(4-(2,3-dichlorophenyl)piperazin-1-yl)propyl)-2,5-dimethyl-1-phenyl-1H-imidazole-4-carboxamide], the half-inhibitory concentration (IC50) is 12.1 nM. Next, `COc1ccc(-n2cc(C(=O)NCCCN3CCN(c4cccc(C)c4C)CC3)nc2-c2ccccc2)cc1` [Example 134, N-(3-(4-(2,3-dimethylphenyl)piperazin-1-yl)propyl)-1-(4-methoxyphenyl)-2-phenyl-1H-imidazole-4-carboxamide dihydrochloride]: 101 nM; `COc1ccccc1-n1c(C)nc(C(=O)NCCCN2CCN(c3cccc(Cl)c3Cl)CC2)c1C` [Example 145, N-(3-(4-(2,3-dichlorophenyl)piperazin-1-yl)propyl)-1-(2-methoxyphenyl)-2,5-dimethyl-1H-imidazole-4-carboxamide dihydrochloride]: 25.5 nM; `Cc1cccc(N2CCN(CCNC(=O)c3nc(C)n(-c4ccc5c(c4)OCO5)c3C)CC2)c1C` [Example 115, 1-(benzo[d][1,3]dioxol-5-yl)-N-(2-(4-(2,3-dimethylphenyl)piperazin-1-yl)ethyl)-2,5-dimethyl-1H-imidazole-4-carboxamide dihydrochloride]: 27 nM. Next, `CCc1c(C(=O)NCCCN2CCN(c3cccc(Cl)c3Cl)CC2)nc(-c2ccc(Cl)cc2Cl)n1-c1ccc(Br)cc1` [Example 89, 1-(4-bromophenyl)-2-(2,4-dichlorophenyl)-N-(3-(4-(2,3-dichlorophenyl)piperazin-1-yl)propyl)-5-ethyl-1H-imidazole-4-carboxamide]: 319 nM.

(Values after US8835436B2 (priority 2009, dated 2014).)
